Data reported in article doi:10.1101/2021.04.08.439011v1 (biorxiv, 2021).

How the values were obtained:
ABL1(E255K) = ABL1(E255K) (Homo sapiens, UniProt P00519, E255K); settings: phosphorylated; 1 µM; binder
ALK = ALK (Homo sapiens, UniProt Q9UM73); settings: 1 µM; binder
CDKL2 = CDKL2 (Homo sapiens, UniProt Q92772); settings: 1 µM; binder
CLK2 = CLK2 (Homo sapiens, UniProt P49760); settings: 1 µM; binder
DDR2 = DDR2 (Homo sapiens, UniProt Q16832); settings: 1 µM; binder
EGFR(G719S) = EGFR(G719S) (Homo sapiens, UniProt P00533, G719S); settings: 1 µM; binder
EPHA8 = EPHA8 (Homo sapiens, UniProt P29322); settings: 1 µM; binder
FGFR3(G697C) = FGFR3(G697C) (Homo sapiens, UniProt P22607, G697C); settings: 1 µM; binder
FLT4 = FLT4 (Homo sapiens, UniProt P35916); settings: 1 µM; binder
FRK = FRK (Homo sapiens, UniProt P42685); settings: 1 µM; binder
GRK4 = GRK4 (Homo sapiens, UniProt P32298); settings: 1 µM; binder
GSK3A = GSK3A (Homo sapiens, UniProt P49840); settings: 1 µM; binder
HUNK = HUNK (Homo sapiens, UniProt P57058); settings: 1 µM; binder
KIT = KIT (Homo sapiens, UniProt P10721); settings: 1 µM; binder
KIT(L576P) = KIT(L576P) (Homo sapiens, UniProt P10721, L576P); settings: 1 µM; binder
LATS2 = LATS2 (Homo sapiens, UniProt Q9NRM7); settings: 1 µM; binder
MATK = MATK (Homo sapiens, UniProt P42679); settings: 1 µM; binder
MLK3 = MLK3 (Homo sapiens, UniProt Q16584); settings: 1 µM; binder
NEK9 = NEK9 (Homo sapiens, UniProt Q8TD19); settings: 1 µM; binder
NIM1 = NIM1 (Homo sapiens, UniProt Q8IY84); settings: 1 µM; binder
PIK3CA(H1047Y) = PIK3CA(H1047Y) (Homo sapiens, UniProt P42336, H1047Y); settings: 1 µM; binder
PIK3CA(Q546K) = PIK3CA(Q546K) (Homo sapiens, UniProt P42336, Q546K); settings: 1 µM; binder
PRKCE = PRKCE (Homo sapiens, UniProt Q02156); settings: 1 µM; binder
PRKD2 = PRKD2 (Homo sapiens, UniProt Q9BZL6); settings: 1 µM; binder
RET(V804L) = RET(V804L) (Homo sapiens, UniProt P07949, V804L); settings: 1 µM; binder
RPS6KA5 = RPS6KA5 (Homo sapiens, UniProt O75582); settings: Kin.Dom.1 N-terminal; binder
SRMS = SRMS (Homo sapiens, UniProt Q9H3Y6); settings: 1 µM; binder
TRKA = TRKA (Homo sapiens, UniProt P04629); settings: 1 µM; binder
TRKB = TRKB (Homo sapiens, UniProt Q16620); settings: 1 µM; binder
TSSK3 = TSSK3 (Homo sapiens, UniProt Q96PN8); settings: 1 µM; binder
Sequence of TSSK3 (Q96PN8 whole entry): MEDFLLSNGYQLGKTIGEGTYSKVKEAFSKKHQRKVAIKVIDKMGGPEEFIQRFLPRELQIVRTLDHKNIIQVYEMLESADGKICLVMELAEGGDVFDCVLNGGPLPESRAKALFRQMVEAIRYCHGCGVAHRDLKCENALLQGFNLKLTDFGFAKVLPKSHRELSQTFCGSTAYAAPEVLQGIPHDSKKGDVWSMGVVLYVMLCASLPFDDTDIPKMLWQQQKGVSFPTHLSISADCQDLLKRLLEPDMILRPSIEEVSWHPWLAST

Sequence of NIM1 (Q8IY84 whole entry): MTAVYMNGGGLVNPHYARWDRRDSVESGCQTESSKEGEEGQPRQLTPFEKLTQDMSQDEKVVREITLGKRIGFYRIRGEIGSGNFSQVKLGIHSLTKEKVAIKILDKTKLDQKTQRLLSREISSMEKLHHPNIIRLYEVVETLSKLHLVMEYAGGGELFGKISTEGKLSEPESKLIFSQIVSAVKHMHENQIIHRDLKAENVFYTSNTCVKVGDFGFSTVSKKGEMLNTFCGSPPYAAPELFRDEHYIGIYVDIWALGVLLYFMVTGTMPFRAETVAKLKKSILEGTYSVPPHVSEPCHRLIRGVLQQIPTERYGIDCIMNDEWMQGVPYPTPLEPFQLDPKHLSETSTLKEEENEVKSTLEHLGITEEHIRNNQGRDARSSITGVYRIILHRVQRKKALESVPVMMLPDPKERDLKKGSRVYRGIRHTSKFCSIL
Sequence of TRKA (P04629 whole entry): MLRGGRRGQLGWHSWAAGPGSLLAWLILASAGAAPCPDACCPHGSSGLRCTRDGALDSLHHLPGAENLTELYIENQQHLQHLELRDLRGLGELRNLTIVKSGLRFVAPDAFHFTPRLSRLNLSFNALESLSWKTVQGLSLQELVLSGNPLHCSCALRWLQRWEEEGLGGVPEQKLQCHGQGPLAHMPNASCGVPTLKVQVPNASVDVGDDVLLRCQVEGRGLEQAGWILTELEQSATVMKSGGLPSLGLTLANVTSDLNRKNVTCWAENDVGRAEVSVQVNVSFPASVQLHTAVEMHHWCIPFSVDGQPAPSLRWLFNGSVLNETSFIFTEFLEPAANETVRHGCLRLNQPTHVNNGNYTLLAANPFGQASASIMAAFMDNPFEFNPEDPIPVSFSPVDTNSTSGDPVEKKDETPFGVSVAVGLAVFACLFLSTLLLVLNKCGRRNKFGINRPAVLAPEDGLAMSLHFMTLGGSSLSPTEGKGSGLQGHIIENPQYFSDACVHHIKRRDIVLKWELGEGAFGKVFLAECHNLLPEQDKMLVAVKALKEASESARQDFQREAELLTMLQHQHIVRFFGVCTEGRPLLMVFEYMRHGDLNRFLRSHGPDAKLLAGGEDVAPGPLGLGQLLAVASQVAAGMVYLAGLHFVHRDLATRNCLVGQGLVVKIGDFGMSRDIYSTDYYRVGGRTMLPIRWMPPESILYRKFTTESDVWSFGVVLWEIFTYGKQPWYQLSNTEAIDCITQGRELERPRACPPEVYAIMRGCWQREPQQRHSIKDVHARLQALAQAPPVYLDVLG
Sequence of LATS2 (Q9NRM7 whole entry): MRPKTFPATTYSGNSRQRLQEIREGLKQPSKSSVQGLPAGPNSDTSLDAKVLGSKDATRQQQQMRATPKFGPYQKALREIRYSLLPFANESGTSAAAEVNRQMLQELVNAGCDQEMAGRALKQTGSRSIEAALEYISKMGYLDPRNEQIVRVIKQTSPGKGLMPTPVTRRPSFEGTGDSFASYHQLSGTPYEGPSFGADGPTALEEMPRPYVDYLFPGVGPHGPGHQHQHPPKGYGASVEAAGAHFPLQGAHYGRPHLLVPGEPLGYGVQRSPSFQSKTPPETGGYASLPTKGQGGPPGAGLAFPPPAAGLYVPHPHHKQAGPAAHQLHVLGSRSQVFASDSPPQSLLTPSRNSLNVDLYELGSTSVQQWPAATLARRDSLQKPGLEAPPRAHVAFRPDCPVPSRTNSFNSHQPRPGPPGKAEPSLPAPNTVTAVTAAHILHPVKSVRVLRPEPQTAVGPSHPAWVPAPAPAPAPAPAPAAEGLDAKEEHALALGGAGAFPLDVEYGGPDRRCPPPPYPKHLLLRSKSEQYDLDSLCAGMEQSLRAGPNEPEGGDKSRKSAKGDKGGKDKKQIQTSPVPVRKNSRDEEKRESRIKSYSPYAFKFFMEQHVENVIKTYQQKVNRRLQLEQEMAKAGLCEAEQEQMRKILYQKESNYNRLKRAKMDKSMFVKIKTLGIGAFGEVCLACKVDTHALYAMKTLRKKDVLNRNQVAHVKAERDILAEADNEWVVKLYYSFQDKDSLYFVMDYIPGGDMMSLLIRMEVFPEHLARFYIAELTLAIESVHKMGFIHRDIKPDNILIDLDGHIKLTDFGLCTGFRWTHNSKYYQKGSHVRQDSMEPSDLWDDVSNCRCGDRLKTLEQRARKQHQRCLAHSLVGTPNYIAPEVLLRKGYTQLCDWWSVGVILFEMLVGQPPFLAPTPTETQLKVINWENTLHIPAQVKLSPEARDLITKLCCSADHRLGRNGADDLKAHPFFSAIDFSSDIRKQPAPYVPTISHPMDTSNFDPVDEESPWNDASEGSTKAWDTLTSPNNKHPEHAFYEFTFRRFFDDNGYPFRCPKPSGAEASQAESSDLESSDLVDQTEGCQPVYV
Sequence of DDR2 (Q16832 whole entry): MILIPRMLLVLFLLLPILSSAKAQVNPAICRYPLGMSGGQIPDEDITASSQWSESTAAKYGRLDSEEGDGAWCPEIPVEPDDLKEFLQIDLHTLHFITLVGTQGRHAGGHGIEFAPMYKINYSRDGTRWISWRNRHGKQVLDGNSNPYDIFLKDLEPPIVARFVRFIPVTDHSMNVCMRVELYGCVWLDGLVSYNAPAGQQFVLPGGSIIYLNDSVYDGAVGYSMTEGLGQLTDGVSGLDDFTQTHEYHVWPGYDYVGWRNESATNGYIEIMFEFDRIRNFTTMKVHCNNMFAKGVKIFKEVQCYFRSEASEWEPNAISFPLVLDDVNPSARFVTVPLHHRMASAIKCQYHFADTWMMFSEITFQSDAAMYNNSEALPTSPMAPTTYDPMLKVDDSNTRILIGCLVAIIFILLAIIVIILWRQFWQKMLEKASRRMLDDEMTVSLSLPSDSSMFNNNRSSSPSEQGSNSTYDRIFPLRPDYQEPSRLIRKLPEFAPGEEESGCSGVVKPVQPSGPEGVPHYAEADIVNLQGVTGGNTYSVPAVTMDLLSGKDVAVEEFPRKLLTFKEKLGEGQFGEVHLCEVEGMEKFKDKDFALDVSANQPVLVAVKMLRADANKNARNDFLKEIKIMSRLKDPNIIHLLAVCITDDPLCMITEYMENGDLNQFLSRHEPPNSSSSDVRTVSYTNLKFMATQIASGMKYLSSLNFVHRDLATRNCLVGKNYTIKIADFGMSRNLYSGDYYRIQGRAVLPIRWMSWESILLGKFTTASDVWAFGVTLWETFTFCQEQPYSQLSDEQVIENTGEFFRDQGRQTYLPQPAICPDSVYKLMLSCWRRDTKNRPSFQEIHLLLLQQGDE
Sequence of MLK3 (Q16584 whole entry): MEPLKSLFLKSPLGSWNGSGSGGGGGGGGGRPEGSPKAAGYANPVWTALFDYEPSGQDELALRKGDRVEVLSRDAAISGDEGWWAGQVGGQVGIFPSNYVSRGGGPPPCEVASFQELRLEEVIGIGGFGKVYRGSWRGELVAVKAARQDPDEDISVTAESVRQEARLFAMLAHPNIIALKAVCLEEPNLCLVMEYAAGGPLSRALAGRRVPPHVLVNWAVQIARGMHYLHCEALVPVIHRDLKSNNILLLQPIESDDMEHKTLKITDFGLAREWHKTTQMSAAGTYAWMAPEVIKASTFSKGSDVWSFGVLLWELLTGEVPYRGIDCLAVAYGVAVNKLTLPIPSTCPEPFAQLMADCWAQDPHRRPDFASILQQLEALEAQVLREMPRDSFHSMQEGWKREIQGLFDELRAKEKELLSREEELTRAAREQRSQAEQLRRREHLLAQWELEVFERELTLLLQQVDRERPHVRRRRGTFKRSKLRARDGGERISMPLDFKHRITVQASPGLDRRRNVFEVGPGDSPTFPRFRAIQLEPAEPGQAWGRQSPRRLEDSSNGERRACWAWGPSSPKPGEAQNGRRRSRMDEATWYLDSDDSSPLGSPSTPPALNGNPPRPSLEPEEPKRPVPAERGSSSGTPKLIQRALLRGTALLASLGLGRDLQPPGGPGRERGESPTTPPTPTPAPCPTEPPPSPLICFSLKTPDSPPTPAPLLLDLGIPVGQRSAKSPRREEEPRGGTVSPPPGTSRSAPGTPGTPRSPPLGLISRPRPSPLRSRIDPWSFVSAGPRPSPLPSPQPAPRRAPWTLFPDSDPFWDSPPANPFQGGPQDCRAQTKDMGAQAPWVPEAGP
Sequence of FRK (P42685 whole entry): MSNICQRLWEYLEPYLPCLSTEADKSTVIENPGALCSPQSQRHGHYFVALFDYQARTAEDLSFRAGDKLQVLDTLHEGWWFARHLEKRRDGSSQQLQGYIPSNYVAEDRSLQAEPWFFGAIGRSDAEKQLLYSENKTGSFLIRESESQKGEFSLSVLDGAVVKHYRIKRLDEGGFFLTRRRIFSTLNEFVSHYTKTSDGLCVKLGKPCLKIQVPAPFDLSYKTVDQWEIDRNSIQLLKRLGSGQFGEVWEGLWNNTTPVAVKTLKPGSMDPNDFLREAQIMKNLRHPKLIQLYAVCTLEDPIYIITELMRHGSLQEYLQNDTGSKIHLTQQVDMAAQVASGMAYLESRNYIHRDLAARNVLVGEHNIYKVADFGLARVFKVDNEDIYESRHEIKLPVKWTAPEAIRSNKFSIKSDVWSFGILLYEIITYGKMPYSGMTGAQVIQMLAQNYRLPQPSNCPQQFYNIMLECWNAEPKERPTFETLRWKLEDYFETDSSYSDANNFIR

SMILES: CNc1ncc2cc(-c3ccc(-c4cccc(C)n4)cc3Cl)c(=O)n(C[C@H]3OC[C@H](N)CO3)c2n1 [compound 6, G-5555]
- Percent Control (ABL1(E255K)): 100%
- Percent Control (ALK): 84%
- Percent Control (CDKL2): 58%
- Percent Control (CLK2): 100%
- Percent Control (DDR2): 100%
- Percent Control (EGFR(G719S)): 100%
- Percent Control (EPHA8): 72%
- Percent Control (FGFR3(G697C)): 100%
- Percent Control (FLT4): 100%
- Percent Control (FRK): 71%
- Percent Control (GRK4): 100%
- Percent Control (GSK3A): 100%
- Percent Control (HUNK): 100%
- Percent Control (KIT): 100%
- Percent Control (KIT(L576P)): 100%
- Percent Control (LATS2): 8%
- Percent Control (MATK): 100%
- Percent Control (MLK3): 100%
- Percent Control (NEK9): 100%
- Percent Control (NIM1): 100%
- Percent Control (PIK3CA(H1047Y)): 86%
- Percent Control (PIK3CA(Q546K)): 100%
- Percent Control (PRKCE): 71%
- Percent Control (PRKD2): 27%
- Percent Control (RET(V804L)): 100%
- Percent Control (RPS6KA5): 100%
- Percent Control (SRMS): 100%
- Percent Control (TRKA): 64%
- Percent Control (TRKB): 100%
- Percent Control (TSSK3): 84%
